Drawing on US10344060B2 (priority 2013, dated 2019), this text covers IC50 and Nav1.4/Nav1.7 for nine compounds.

A word on the IC50: it is the concentration that inhibits the measured activity by half.

What all share (assay): cell-based
For one test, the target named is hNav1.7 (Homo sapiens, UniProt Q15858). The settings on record: read-out: IC50 (μM) Nav1.7.
A further test concerns the target hNav1.5 (Homo sapiens, UniProt Q14524). The settings on record: IonWorks Quattro; Table 6; read-out: IC50 (μM) Nav1.5. Background: The patch-clamp technique gives a direct electrical read-out from membranes.
The target in a further test is hNav1.4 (Homo sapiens, UniProt P35499). It counts as cell-based. To be noted: Table 6; for IC50: IonWorks Quattro, read-out: IC50 (μM) Nav1.4; for Nav1.4/Nav1.7: ratio of IonWorks Quattro IC50 values.
The target of the next test is hNav1.3 (Homo sapiens, UniProt Q9NY46). The settings on record: IonWorks Quattro; Table 6; read-out: IC50 (μM) Nav1.3.

Each structure is given as a SMILES string.

Chain of hNav1.3 (Q9NY46 whole entry): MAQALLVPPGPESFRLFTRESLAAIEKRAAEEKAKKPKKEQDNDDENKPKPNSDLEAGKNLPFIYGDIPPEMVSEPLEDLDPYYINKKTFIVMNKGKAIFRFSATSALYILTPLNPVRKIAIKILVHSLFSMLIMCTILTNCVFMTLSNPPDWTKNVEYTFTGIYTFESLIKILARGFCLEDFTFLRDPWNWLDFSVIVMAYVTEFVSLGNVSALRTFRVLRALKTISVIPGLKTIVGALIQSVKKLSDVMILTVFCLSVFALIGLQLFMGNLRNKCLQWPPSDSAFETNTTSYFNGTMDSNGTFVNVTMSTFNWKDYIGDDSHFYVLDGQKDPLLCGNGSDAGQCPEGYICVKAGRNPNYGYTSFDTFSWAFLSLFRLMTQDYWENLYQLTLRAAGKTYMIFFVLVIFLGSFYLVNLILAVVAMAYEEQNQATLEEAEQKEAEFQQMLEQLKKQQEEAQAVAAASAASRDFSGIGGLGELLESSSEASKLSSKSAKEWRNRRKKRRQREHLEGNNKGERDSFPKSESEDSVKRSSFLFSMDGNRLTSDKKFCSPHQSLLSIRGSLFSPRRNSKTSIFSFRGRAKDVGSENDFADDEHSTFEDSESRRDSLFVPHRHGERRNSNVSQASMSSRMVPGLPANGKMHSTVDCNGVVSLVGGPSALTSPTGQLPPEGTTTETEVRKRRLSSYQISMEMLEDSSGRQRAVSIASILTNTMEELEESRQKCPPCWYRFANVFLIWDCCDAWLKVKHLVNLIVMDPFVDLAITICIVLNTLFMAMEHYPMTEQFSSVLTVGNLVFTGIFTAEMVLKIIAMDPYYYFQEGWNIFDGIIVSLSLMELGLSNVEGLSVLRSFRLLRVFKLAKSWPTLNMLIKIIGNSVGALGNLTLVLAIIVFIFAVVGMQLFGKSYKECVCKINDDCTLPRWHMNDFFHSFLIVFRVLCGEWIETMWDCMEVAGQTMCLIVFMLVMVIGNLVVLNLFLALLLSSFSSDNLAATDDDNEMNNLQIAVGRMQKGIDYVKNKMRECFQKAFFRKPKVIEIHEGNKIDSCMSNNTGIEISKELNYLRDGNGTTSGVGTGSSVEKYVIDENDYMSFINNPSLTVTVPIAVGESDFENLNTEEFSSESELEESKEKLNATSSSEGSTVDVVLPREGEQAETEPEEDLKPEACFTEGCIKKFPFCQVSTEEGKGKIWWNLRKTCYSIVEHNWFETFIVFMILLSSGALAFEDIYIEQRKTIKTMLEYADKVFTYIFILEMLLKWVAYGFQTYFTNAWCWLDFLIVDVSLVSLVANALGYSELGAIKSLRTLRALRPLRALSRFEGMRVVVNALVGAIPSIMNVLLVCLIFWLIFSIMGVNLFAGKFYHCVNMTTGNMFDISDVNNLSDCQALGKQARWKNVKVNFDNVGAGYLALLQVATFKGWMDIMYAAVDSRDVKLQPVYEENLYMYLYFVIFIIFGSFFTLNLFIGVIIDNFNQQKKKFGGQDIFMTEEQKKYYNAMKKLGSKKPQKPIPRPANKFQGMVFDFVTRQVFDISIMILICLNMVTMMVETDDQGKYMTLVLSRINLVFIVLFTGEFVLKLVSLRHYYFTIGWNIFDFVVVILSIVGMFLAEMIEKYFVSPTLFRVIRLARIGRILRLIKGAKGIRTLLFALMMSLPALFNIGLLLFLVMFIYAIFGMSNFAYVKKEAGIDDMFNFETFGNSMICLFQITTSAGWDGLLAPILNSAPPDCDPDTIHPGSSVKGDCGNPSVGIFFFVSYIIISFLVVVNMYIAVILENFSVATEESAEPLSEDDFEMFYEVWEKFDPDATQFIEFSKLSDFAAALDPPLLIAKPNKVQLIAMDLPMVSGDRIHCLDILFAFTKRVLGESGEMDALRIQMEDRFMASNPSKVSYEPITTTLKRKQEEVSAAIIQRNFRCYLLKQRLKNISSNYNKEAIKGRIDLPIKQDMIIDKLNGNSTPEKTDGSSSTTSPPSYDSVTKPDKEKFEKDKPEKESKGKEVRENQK
Chain of hNav1.5 (Q14524 whole entry): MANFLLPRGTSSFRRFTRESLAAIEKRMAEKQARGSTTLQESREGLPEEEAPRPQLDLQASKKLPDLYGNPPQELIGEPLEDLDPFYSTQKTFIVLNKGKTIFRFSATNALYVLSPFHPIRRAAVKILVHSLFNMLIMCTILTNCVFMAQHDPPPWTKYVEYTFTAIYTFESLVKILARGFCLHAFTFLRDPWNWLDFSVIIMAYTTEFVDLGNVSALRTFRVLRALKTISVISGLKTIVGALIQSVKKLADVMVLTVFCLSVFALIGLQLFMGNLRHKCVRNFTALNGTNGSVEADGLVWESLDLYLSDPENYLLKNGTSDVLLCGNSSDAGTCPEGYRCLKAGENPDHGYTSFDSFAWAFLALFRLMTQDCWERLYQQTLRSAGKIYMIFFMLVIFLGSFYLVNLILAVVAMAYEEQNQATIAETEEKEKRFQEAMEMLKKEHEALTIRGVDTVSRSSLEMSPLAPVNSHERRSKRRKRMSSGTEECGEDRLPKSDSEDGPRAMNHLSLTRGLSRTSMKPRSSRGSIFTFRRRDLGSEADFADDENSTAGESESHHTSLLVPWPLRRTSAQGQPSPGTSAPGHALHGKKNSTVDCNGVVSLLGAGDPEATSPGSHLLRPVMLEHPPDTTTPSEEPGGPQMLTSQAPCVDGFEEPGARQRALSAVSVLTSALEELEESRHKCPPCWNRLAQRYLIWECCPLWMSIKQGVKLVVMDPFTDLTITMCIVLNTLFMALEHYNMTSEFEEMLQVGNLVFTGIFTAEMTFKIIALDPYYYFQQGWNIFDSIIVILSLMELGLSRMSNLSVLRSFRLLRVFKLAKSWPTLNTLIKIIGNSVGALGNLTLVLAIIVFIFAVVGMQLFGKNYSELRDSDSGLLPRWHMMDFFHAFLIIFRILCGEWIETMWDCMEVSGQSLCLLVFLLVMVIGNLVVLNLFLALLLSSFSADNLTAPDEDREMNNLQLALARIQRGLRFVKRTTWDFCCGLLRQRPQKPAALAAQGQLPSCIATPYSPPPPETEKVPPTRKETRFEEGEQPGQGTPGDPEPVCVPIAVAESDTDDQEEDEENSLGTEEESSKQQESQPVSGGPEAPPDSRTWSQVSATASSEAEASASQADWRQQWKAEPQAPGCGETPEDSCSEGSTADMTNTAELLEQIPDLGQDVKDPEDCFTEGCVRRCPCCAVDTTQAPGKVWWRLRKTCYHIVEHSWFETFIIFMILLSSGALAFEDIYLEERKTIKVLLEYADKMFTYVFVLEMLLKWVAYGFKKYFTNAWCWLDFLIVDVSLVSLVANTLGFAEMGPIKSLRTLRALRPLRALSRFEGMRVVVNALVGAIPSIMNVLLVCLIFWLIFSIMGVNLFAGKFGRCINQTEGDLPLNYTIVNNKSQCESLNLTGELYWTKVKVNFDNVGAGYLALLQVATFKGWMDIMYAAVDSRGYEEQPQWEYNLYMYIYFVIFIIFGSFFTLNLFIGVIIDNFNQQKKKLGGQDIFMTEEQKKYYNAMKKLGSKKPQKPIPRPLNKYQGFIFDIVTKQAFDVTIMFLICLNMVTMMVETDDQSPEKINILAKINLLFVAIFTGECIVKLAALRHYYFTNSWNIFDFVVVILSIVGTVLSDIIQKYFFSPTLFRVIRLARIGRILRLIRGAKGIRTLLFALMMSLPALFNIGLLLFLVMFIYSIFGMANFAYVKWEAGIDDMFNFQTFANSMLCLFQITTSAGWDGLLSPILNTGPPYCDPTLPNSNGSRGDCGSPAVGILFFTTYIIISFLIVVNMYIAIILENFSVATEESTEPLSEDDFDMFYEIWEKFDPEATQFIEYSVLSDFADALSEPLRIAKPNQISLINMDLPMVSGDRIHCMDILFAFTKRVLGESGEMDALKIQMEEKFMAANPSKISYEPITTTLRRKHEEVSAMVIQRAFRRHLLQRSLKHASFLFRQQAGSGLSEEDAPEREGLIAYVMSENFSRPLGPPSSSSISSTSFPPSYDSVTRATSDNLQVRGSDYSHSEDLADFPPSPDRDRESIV

As for `CC[C@H](C)[C@H](NC(=O)[C@@H](NC(=O)[C@H](CCCCN)NC(=O)[C@H](CCCNC(=N)N)NC(=O)[C@@H]1CSSC[C@@H]2NC(=O)[C@H](CCCCN)NC(=O)[C@H](CCCNC(=N)N)NC(=O)[C@H](CCCCN)NC(=O)[C@H](CO)NC(=O)[C@H](CC(=O)O)NC(=O)[C@@H]3CSSC[C@H](NC(=O)[C@H](CCCNC(=N)N)NC(=O)[C@H](CC(C)C)NC(=O)CNC(=O)[C@H](CCC(=O)O)NC(=O)[C@H](CSSC[C@H](NC(=O)[C@@H](N)Cc4ccc(O)cc4)C(=O)N[C@@H](CCC(N)=O)C(=O)N[C@@H](CCCCN)C(=O)N[C@@H](Cc4c[nH]c5ccccc45)C(=O)N[C@@H](CCSC)C(=O)N[C@@H](Cc4c[nH]c5ccccc45)C(=O)N[C@@H]([C@@H](C)O)C(=O)N3)NC2=O)C(=O)N[C@@H](CCCCN)C(=O)N[C@@H](CC(C)C)C(=O)N[C@@H](Cc2c[nH]c3ccccc23)C(=O)N1)[C@@H](C)CC)C(N)=O` [compound 80], the IC50 on hNav1.7 was found to be 0.007 µM; on hNav1.5 it was 1.5 µM; at hNav1.4, 0.07 µM; on hNav1.3, 0.03 µM. On hNav1.4, the Nav1.4/Nav1.7 turned out to be 10.

Consider `CC[C@H](C)[C@H](NC(=O)[C@@H](NC(=O)[C@H](CCCCN)NC(=O)[C@H](CCCNC(=N)N)NC(=O)[C@@H]1CSSC[C@@H]2NC(=O)[C@H](C)NC(=O)[C@H](CCCNC(=N)N)NC(=O)[C@H](CCCCN)NC(=O)[C@H](CO)NC(=O)[C@H](CC(=O)O)NC(=O)[C@@H]3CSSC[C@H](NC(=O)[C@H](CCCNC(=N)N)NC(=O)[C@H](CC(C)C)NC(=O)CNC(=O)[C@H](CCCCN)NC(=O)[C@H](CSSC[C@H](NC(=O)[C@@H](N)Cc4ccc(O)cc4)C(=O)N[C@@H](CCC(N)=O)C(=O)N[C@@H](CCCCN)C(=O)N[C@@H](Cc4c[nH]c5ccccc45)C(=O)N[C@@H](CCSC)C(=O)N[C@@H](Cc4c[nH]c5ccccc45)C(=O)N[C@@H]([C@@H](C)O)C(=O)N3)NC2=O)C(=O)N[C@@H](CCCCN)C(=O)N[C@@H](CC(C)C)C(=O)N[C@@H](Cc2c[nH]c3ccccc23)C(=O)N1)[C@@H](C)CC)C(N)=O` [compound 81], for which the IC50 is 0.01 µM on hNav1.7, 0.89 µM on hNav1.5, 0.05 µM at hNav1.4 and 0.03 µM on hNav1.3. For the same compound, the Nav1.4/Nav1.7 at hNav1.4 stood at 5.

In the case of `CC[C@H](C)[C@H](NC(=O)[C@@H](NC(=O)[C@H](CCCCN)NC(=O)[C@H](CCCNC(=N)N)NC(=O)[C@@H]1CSSC[C@@H]2NC(=O)[C@H](C)NC(=O)[C@H](CCCNC(=N)N)NC(=O)[C@H](CCCCN)NC(=O)[C@H](CO)NC(=O)[C@H](CC(=O)O)NC(=O)[C@@H]3CSSC[C@H](NC(=O)[C@H](CCCNC(=N)N)NC(=O)[C@H](CC(C)C)NC(=O)CNC(=O)[C@H](CCC(=O)O)NC(=O)[C@H](CSSC[C@H](NC(=O)[C@@H](N)Cc4ccc(O)cc4)C(=O)N[C@@H](CCC(N)=O)C(=O)N[C@@H](CCCCN)C(=O)N[C@@H](Cc4c[nH]c5ccccc45)C(=O)N[C@@H](CCSC)C(=O)N[C@@H](Cc4c[nH]c5ccccc45)C(=O)N[C@@H]([C@@H](C)O)C(=O)N3)NC2=O)C(=O)N[C@@H](CCCCN)C(=O)N[C@@H](CCCNC(=N)N)C(=O)N[C@@H](Cc2c[nH]c3ccccc23)C(=O)N1)[C@@H](C)CC)C(N)=O` [compound 105], the IC50 came to 0.15 µM at hNav1.7, 2.8 µM on hNav1.5, 0.21 µM at hNav1.4 and 0.15 µM at hNav1.3. Also, the Nav1.4/Nav1.7 on hNav1.4 was 1.

Consider `CC[C@H](C)[C@H](NC(=O)[C@@H](NC(=O)[C@H](CCCCN)NC(=O)[C@H](CCCNC(=N)N)NC(=O)[C@@H]1CSSC[C@@H]2NC(=O)[C@H](C)NC(=O)[C@H](CCCNC(=N)N)NC(=O)[C@H](CCCCN)NC(=O)[C@H](CO)NC(=O)[C@H](CC(=O)O)NC(=O)[C@@H]3CSSC[C@H](NC(=O)[C@H](CCCNC(=N)N)NC(=O)[C@H](CC(C)C)NC(=O)CNC(=O)[C@H](CCC(=O)O)NC(=O)[C@H](CSSC[C@H](NC(=O)[C@@H](N)Cc4cccc5ccccc45)C(=O)N[C@@H](CCC(N)=O)C(=O)N[C@@H](CCCCN)C(=O)N[C@@H](Cc4c[nH]c5ccccc45)C(=O)N[C@@H](CCSC)C(=O)N[C@@H](Cc4c[nH]c5ccccc45)C(=O)N[C@@H]([C@@H](C)O)C(=O)N3)NC2=O)C(=O)N[C@@H](CCCCN)C(=O)N[C@@H](CC(C)C)C(=O)N[C@@H](Cc2c[nH]c3ccccc23)C(=O)N1)[C@@H](C)CC)C(N)=O` [compound 25], for which the IC50 was found to be 0.008 µM on hNav1.7, 2.3 µM at hNav1.5, 0.09 µM on hNav1.4 and 0.07 µM on hNav1.3. Further, the Nav1.4/Nav1.7 on hNav1.4 came to 10.

Regarding `CC[C@H](C)[C@H](NC(=O)[C@@H](NC(=O)[C@H](CCCCN)NC(=O)[C@H](CCCNC(=N)N)NC(=O)[C@@H]1CSSC[C@@H]2NC(=O)[C@H](C)NC(=O)[C@H](CCCNC(=N)N)NC(=O)[C@H](CCCNC(=N)N)NC(=O)[C@H](CO)NC(=O)[C@H](CC(=O)O)NC(=O)[C@@H]3CSSC[C@H](NC(=O)[C@H](CCCNC(=N)N)NC(=O)[C@H](CC(C)C)NC(=O)CNC(=O)[C@H](CCC(=O)O)NC(=O)[C@H](CSSC[C@H](NC(=O)[C@@H](N)Cc4ccc(O)cc4)C(=O)N[C@@H](CCC(N)=O)C(=O)N[C@@H](CCCCN)C(=O)N[C@@H](Cc4c[nH]c5ccccc45)C(=O)N[C@@H](CCSC)C(=O)N[C@@H](Cc4c[nH]c5ccccc45)C(=O)N[C@@H]([C@@H](C)O)C(=O)N3)NC2=O)C(=O)N[C@@H](CCCCN)C(=O)N[C@@H](CC(C)C)C(=O)N[C@@H](Cc2c[nH]c3ccccc23)C(=O)N1)[C@@H](C)CC)C(N)=O` [compound 99], the IC50 was determined as 0.008 µM on hNav1.7, 2.5 µM at hNav1.5, 0.15 µM at hNav1.4 and 0.05 µM on hNav1.3. Moreover, on hNav1.4, the Nav1.4/Nav1.7 is listed as 19.

As to `CC[C@H](C)[C@H](NC(=O)[C@@H](NC(=O)[C@H](CCCCN)NC(=O)[C@H](CCCNC(=N)N)NC(=O)[C@@H]1CSSC[C@@H]2NC(=O)[C@H](C)NC(=O)[C@H](CCCNC(=N)N)NC(=O)[C@H](CCCCN)NC(=O)[C@H](CO)NC(=O)[C@H](CC(=O)O)NC(=O)[C@@H]3CSSC[C@H](NC(=O)[C@H](CCCNC(=N)N)NC(=O)[C@H](CC(C)C)NC(=O)CNC(=O)[C@H](C)NC(=O)[C@H](CSSC[C@H](NC(=O)[C@@H](N)Cc4ccc(O)cc4)C(=O)N[C@@H](CCC(N)=O)C(=O)N[C@@H](CCCCN)C(=O)N[C@@H](Cc4c[nH]c5ccccc45)C(=O)N[C@@H](CCSC)C(=O)N[C@@H](Cc4c[nH]c5ccccc45)C(=O)N[C@@H]([C@@H](C)O)C(=O)N3)NC2=O)C(=O)N[C@@H](CCCCN)C(=O)N[C@@H](CC(C)C)C(=O)N[C@@H](Cc2c[nH]c3ccccc23)C(=O)N1)[C@@H](C)CC)C(N)=O` [compound 14], the IC50 was 0.008 µM on hNav1.7, 2 µM at hNav1.5, 0.06 µM on hNav1.4 and 0.08 µM at hNav1.3. Also, the Nav1.4/Nav1.7 on hNav1.4 came out at 8.

As for `CC[C@H](C)[C@H](NC(=O)[C@@H](NC(=O)[C@H](CCCCN)NC(=O)[C@H](CCCNC(=N)N)NC(=O)[C@@H]1CSSC[C@@H]2NC(=O)[C@H](C)NC(=O)[C@H](CCCNC(=N)N)NC(=O)[C@H](CCCCN)NC(=O)[C@H](CO)NC(=O)[C@H](CC(=O)O)NC(=O)[C@@H]3CSSC[C@H](NC(=O)[C@H](CCCNC(=N)N)NC(=O)[C@H](CC(C)C)NC(=O)CNC(=O)[C@H](CCCNC(=N)N)NC(=O)[C@H](CSSC[C@H](NC(=O)[C@@H](N)Cc4ccc(O)cc4)C(=O)N[C@@H](CCC(N)=O)C(=O)N[C@@H](CCCCN)C(=O)N[C@@H](Cc4c[nH]c5ccccc45)C(=O)N[C@@H](CCSC)C(=O)N[C@@H](Cc4c[nH]c5ccccc45)C(=O)N[C@@H]([C@@H](C)O)C(=O)N3)NC2=O)C(=O)N[C@@H](CCCCN)C(=O)N[C@@H](CC(C)C)C(=O)N[C@@H](Cc2c[nH]c3ccccc23)C(=O)N1)[C@@H](C)CC)C(N)=O` [compound 101], the IC50 at hNav1.7 is 0.014 µM; at hNav1.5, 0.95 µM; on hNav1.4, 0.06 µM; on hNav1.3, 0.04 µM. For the same compound, at hNav1.4, the Nav1.4/Nav1.7 is 4.

Consider `CC[C@H](C)[C@H](NC(=O)[C@@H](NC(=O)[C@H](CCCCN)NC(=O)[C@H](CCCNC(=N)N)NC(=O)[C@@H]1CSSC[C@@H]2NC(=O)[C@H](C)NC(=O)[C@H](CCCNC(=N)N)NC(=O)[C@H](CCCCN)NC(=O)[C@H](CO)NC(=O)[C@H](CC(=O)O)NC(=O)[C@@H]3CSSC[C@H](NC(=O)[C@H](CCCNC(=N)N)NC(=O)[C@H](CC(C)C)NC(=O)CNC(=O)[C@H](CCC(=O)O)NC(=O)[C@H](CSSC[C@H](NC(=O)[C@@H](N)Cc4ccc(O)cc4)C(=O)N[C@@H](CCC(N)=O)C(=O)N[C@@H](CCCCN)C(=O)N[C@@H](Cc4c[nH]c5ccccc45)C(=O)N[C@@H](CCSC)C(=O)N[C@@H](Cc4c[nH]c5ccccc45)C(=O)N[C@@H]([C@@H](C)O)C(=O)N3)NC2=O)C(=O)N[C@@H](CCCNC(=N)N)C(=O)N[C@@H](CC(C)C)C(=O)N[C@@H](Cc2c[nH]c3ccccc23)C(=O)N1)[C@@H](C)CC)C(N)=O` [compound 104], for which the IC50 on hNav1.7 is 0.016 µM; on hNav1.5, 2 µM; on hNav1.4 it was 0.17 µM; at hNav1.3 it was 0.08 µM. For the same compound, the Nav1.4/Nav1.7 on hNav1.4 was 11.

Turning to `CC[C@H](C)[C@H](NC(=O)[C@@H](NC(=O)[C@H](CCCCN)NC(=O)[C@H](CCCNC(=N)N)NC(=O)[C@@H]1CSSC[C@@H]2NC(=O)[C@H](C)NC(=O)[C@H](CCCNC(=N)N)NC(=O)[C@H](CCCCN)NC(=O)[C@H](CO)NC(=O)[C@H](CC(=O)O)NC(=O)[C@@H]3CSSC[C@H](NC(=O)[C@H](CCCNC(=N)N)NC(=O)[C@H](CC(C)C)NC(=O)CNC(=O)[C@H](CCC(=O)O)NC(=O)[C@H](CSSC[C@H](NC(=O)[C@@H](N)Cc4ccc(O)cc4)C(=O)N[C@@H](CCC(N)=O)C(=O)N[C@@H](CCCCN)C(=O)N[C@@H](Cc4c[nH]c5ccccc45)C(=O)N[C@@H](CCSC)C(=O)N[C@@H](Cc4c[nH]c5ccccc45)C(=O)N[C@@H](C)C(=O)N3)NC2=O)C(=O)N[C@@H](CCCCN)C(=O)N[C@@H](CC(C)C)C(=O)N[C@@H](Cc2c[nH]c3ccccc23)C(=O)N1)[C@@H](C)CC)C(N)=O` [compound 9], the IC50 at hNav1.7 was 0.025 µM; on hNav1.5, more than 5 µM; at hNav1.4, 0.25 µM; at hNav1.3, 0.21 µM. Moreover, on hNav1.4, the Nav1.4/Nav1.7 was 10.
